Measurements taken from US9150588B2, “Substituted pyridazin-4(1H)-ones as phosphodiesterase 10A inhibitors” (TAKEDA PHARMACEUTICAL COMPANY LIMITED, priority 2010, dated 2015).

molecular target: T1, human PDE10A enzyme (Homo sapiens, UniProt Q9Y233); assay: PDE10A Enzyme Activity Inhibition Test (SPA, [3H]cGMP substrate); assay type: biochemical; conditions: at 100 nM compound; read-out: PDE10A enzyme activity inhibition rate
T1 construct: Human PDE10A full-length gene was transfected into Sf9 or COS-7 cells; His-tag; made in house; host or cells: Sf9 or COS-7 cells
T1 sequence (Q9Y233 267-1055): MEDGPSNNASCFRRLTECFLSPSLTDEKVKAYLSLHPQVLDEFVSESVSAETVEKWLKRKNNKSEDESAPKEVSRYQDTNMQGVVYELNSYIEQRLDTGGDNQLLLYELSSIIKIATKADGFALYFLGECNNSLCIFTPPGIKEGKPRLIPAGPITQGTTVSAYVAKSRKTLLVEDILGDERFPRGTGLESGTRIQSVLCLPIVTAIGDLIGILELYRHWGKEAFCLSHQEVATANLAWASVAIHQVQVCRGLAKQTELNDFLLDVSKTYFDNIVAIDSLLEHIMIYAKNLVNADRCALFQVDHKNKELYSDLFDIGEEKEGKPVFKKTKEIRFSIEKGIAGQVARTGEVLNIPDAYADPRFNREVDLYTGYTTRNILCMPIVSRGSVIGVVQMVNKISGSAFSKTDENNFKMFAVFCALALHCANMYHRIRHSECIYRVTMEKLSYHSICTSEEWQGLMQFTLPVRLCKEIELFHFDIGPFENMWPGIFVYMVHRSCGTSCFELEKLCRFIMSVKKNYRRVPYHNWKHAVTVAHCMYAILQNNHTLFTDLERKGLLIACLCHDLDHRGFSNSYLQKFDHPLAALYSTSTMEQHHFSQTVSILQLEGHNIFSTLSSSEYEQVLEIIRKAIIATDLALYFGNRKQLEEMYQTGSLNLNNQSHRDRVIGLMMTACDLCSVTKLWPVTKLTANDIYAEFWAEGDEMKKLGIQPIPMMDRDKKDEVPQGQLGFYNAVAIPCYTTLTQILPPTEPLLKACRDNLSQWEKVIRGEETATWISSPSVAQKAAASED
Method: PDE10A Enzyme Activity Inhibition Test
Human PDE10A full-length gene was transfected into Sf9 or COS-7 cells, the cells were disrupted and centrifuged, and human PDE10A enzyme was obtained from the residue. The enzyme extracted from Sf9 cells was partially purified using His-tag affinity column. The enzyme was stored at −70° C. until use. The PDE activity was measured using an SPA (Scintillation Proximity Assay) (GE Healthcare). To measure the inhibitory activity of the compound, 10 μL of serially diluted compound was reacted with 20 μL of PDE enzyme in an assay buffer (50 mM HEPES-NaOH, 8.3 mM MgCl2, 1.7 mM EGTA, 0.1% BSA (pH 7.4)) for 30 min at room temperature. The final concentration of DMSO in the reaction mixture was 1 percent. The compounds were evaluated in duplicate in 96-well half-area plates (Corning). To start the reaction, 10 μL of substrate [^3H] cGMP (25 and 50 nM; GE Healthcare and PerkinElmer, respectively) was added to 40 μL. After 60 min of reaction at room temperature, yttrium SPA beads containing zinc sulphate were added (6 mg/mL, 20 μL) to terminate the PDE reaction. After standing still for 1 hr, the measurement was performed using a scintillation counter (PerkinElmer) and the PDE10A enzyme activity inhibition rate was calculated. The inhibition rate was calculated based on the control containing enzyme and DMSO as 0% and the control without enzyme as 100%.

| inhibition at 0.1 µM | SMILES |
| --- | --- |
| ≥ 50% | COc1cn(C2CN(c3ncccc3C(F)(F)F)C2)nc(-c2ccnn2-c2ccccc2)c1=O [Example 98, 5-methoxy-3-(1-phenyl-1H-pyrazol-5-yl)-1-{1-[3-(trifluoromethyl)pyridin-2-yl]azetidin-3-yl}pyridazin-4(1H)-one] |
| ≥ 50% | COc1cn(Cc2cccc(-c3ccccc3)c2)nc(-c2ccnn2-c2ccccc2)c1=O [Example 61, 1-(biphenyl-3-ylmethyl)-5-methoxy-3-(1-phenyl-1H-pyrazol-5-yl)pyridazin-4(1H)-one] |
| < 50% | O=c1ccn(C2CCN(c3ccccc3C(F)(F)F)CC2)nc1-c1ccnn1-c1ccccc1 [Example 64, 3-(1-phenyl-1H-pyrazol-5-yl)-1-{1-[2-(trifluoromethyl)phenyl]piperidin-4-yl}pyridazin-4(1H)-one] |
| < 50% | COc1cn(S(=O)(=O)c2ccccc2)nc(-c2ccnn2-c2ccccc2)c1=O [Example 60, 5-methoxy-3-(1-phenyl-1H-pyrazol-5-yl)-1-(phenylsulfonyl)pyridazin-4(1H)-one] |
| < 50% | COc1cn(-c2cccc(C(F)(F)F)c2)nc(C2=NC(C)(C)C(=O)N2c2ccccc2)c1=O [Example 142, 3-(4,4-dimethyl-5-oxo-1-phenyl-4,5-dihydro-1H-imidazol-2-yl)-5-methoxy-1-[3-(trifluoromethyl)phenyl]pyridazin-4(1H)-one] |
| < 50% | COc1nc(-c2ccccc2)cn(-c2ccnn2-c2ccccc2)c1=O [Example 141, 3-methoxy-5-phenyl-1-(1-phenyl-1H-pyrazol-5-yl)pyrazin-2(1H)-one] |
| < 50% | COc1cn(C2CCCc3ccccc32)nc(-c2ccnn2-c2ccccc2)c1=O (centres unmarked) [Example 97, 5-methoxy-3-(1-phenyl-1H-pyrazol-5-yl)-1-(1,2,3,4-tetrahydronaphthalen-1-yl)pyridazin-4(1H)-one] |
| < 50% | O=c1cc(-c2ccccc2)sc(-c2ccnn2-c2ccccc2)c1 [Example 140, 2-phenyl-6-(1-phenyl-1H-pyrazol-5-yl)-4H-thiopyran-4-one] |
| < 50% | COc1cn(Cc2ccccc2C(F)(F)F)nc(-c2ccnn2-c2ccccc2)c1=O [Example 102, 5-methoxy-3-(1-phenyl-1H-pyrazol-5-yl)-1-[2-(trifluoromethyl)benzyl]pyridazin-4(1H)-one] |
| < 50% | COc1cn(CC2CC2)nc(-c2ccnn2-c2ccccc2)c1=O [Example 59, 1-(cyclopropylmethyl)-5-methoxy-3-(1-phenyl-1H-pyrazol-5-yl)pyridazin-4(1H)-one] |

Continued, compound first:

| SMILES | inhibition at 0.1 µM |
| --- | --- |
| O=c1ccn(-c2cccc(C(F)(F)F)c2)cc1-c1ccnn1-c1ccccc1 [Example 18, 3-(1-phenyl-1H-pyrazol-5-yl)-1-[3-(trifluoromethyl)phenyl]pyridin-4(1H)-one] | < 50% |
| O=c1cc2n(nc1-c1ccnn1-c1ccccc1)-c1ccccc1OC2 [Example 11, 2-(1-phenyl-1H-pyrazol-5-yl)pyridazino[6,1-c][1,4]benzoxazin-3(5H)-one] | ≥ 50% |
| O=c1ccn(C2CCN(Cc3ccccc3)CC2)nc1-c1ccnn1-c1ccccc1 [Example 28, 1-(1-benzylpiperidin-4-yl)-3-(1-phenyl-1H-pyrazol-5-yl)pyridazin-4(1H)-one] | < 50% |
| O=c1cnn(-c2cccc(C(F)(F)F)c2)cc1-c1ccnn1-c1ccccc1 [Example 19, 5-(1-phenyl-1H-pyrazol-5-yl)-1-[3-(trifluoromethyl)phenyl]pyridazin-4(1H)-one] | < 50% |
| O=c1c(-c2ccnn2-c2ccccc2)nn(-c2cccc(C(F)(F)F)c2)c2ccoc12 [Example 1, 3-(1-phenyl-1H-pyrazol-5-yl)-1-[3-(trifluoromethyl)phenyl]furo[3,2-c]pyridazin-4(1H)-one] | ≥ 50% |
| O=c1c(-c2ccnn2-c2ccccc2)nn(-c2cccc(C(F)(F)F)c2)c2c1OCC2 [Example 2, 3-(1-phenyl-1H-pyrazol-5-yl)-1-[3-(trifluoromethyl)phenyl]-6,7-dihydrofuro[3,2-c]pyridazin-4(1H)-one] | ≥ 50% |
| O=c1cc(-c2ccnn2-c2ccccc2)nc(-c2ccccc2)[nH]1 [Example 17, 2-phenyl-6-(1-phenyl-1H-pyrazol-5-yl)pyrimidin-4(3H)-one] | < 50% |
| O=c1ccc(-c2cccc(C(F)(F)F)c2)nn1-c1ccnn1-c1ccccc1 [Example 21, 2-(1-phenyl-1H-pyrazol-5-yl)-6-[3-(trifluoromethyl)phenyl]pyridazin-3(2H)-one] | < 50% |
| O=C(c1ccccc1)N1CCC(n2ccc(=O)c(-c3ccnn3-c3ccccc3)n2)CC1 [Example 49, 1-[1-(phenylcarbonyl)piperidin-4-yl]-3-(1-phenyl-1H-pyrazol-5-yl)pyridazin-4(1H)-one] | < 50% |
| COc1cn(C2CCN(c3nccs3)CC2)nc(-c2ccnn2-c2ccccc2)c1=O [Example 53, 5-methoxy-3-(1-phenyl-1H-pyrazol-5-yl)-1-[1-(1,3-thiazol-2-yl)piperidin-4-yl]pyridazin-4(1H)-one] | ≥ 50% |
| O=c1ccn(C2CCN(c3ccccc3)CC2)nc1-c1ccnn1-c1ccccc1 [Example 31, 1-(1-phenylpiperidin-4-yl)-3-(1-phenyl-1H-pyrazol-5-yl)pyridazin-4(1H)-one] | ≥ 50% |
| O=c1ccc(-c2ccccc2F)cn1-c1ccnn1-c1ccccc1 [Example 20, 5-(2-fluorophenyl)-1-(1-phenyl-1H-pyrazol-5-yl)pyridin-2(1H)-one] | < 50% |
| COc1cn(C2CCc3ccccc3C2)nc(-c2ccnn2-c2ccccc2)c1=O (centres unmarked) [Example 58, 5-methoxy-3-(1-phenyl-1H-pyrazol-5-yl)-1-(1,2,3,4-tetrahydronaphthalen-2-yl)pyridazin-4(1H)-one] | ≥ 50% |
| O=c1[nH]cc(-c2ccccc2)nc1-c1ccnn1-c1ccccc1 [Example 13, 5-phenyl-3-(1-phenyl-1H-pyrazol-5-yl)pyrazin-2(1H)-one] | < 50% |
| COc1cn(C2CCN(c3ncccc3C#N)CC2)nc(-c2ccnn2-c2ccccc2)c1=O [Example 56, 2-{4-[5-methoxy-4-oxo-3-(1-phenyl-1H-pyrazol-5-yl)pyridazin-1(4H)-yl]piperidin-1-yl}pyridine-3-carbonitrile] | ≥ 50% |
| COc1cn(C2=CCN(Cc3ccccc3)CC2)nc(-c2ccnn2-c2ccccc2)c1=O [Example 25, 1-(1-benzyl-1,2,3,6-tetrahydropyridin-4-yl)-5-methoxy-3-(1-phenyl-1H-pyrazol-5-yl)pyridazin-4(1H)-one] | ≥ 50% |
| COc1c(-c2ccnn2-c2ccccc2)oc(-c2ccccc2)cc1=O [Example 12, 3-methoxy-6-phenyl-2-(1-phenyl-1H-pyrazol-5-yl)-4H-pyran-4-one] | < 50% |
| O=c1[nH]cc(-c2ccccc2)cc1-c1ccnn1-c1ccccc1 [Example 16, 5-phenyl-3-(1-phenyl-1H-pyrazol-5-yl)pyridin-2(1H)-one] | ≥ 50% |
| O=c1cc(-c2ccccc2)oc(-c2ccnn2-c2ccccc2)c1O [Example 14, 3-hydroxy-6-phenyl-2-(1-phenyl-1H-pyrazol-5-yl)-4H-pyran-4-one] | < 50% |
| O=c1[nH]nc(-c2ccccc2)cc1-c1ccnn1-c1ccccc1 [Example 15, 6-phenyl-4-(1-phenyl-1H-pyrazol-5-yl)pyridazin-3(2H)-one] | < 50% |
| O=c1ccn(C2CCCN(c3ccccc3)C2)nc1-c1ccnn1-c1ccccc1 (centres unmarked) [Example 46, 1-(1-phenylpiperidin-3-yl)-3-(1-phenyl-1H-pyrazol-5-yl)pyridazin-4(1H)-one] | < 50% |
| COc1cn(Cc2ccccc2)nc(-c2ccnn2-c2ccccc2)c1=O [Example 23, 1-benzyl-5-methoxy-3-(1-phenyl-1H-pyrazol-5-yl)pyridazin-4(1H)-one] | ≥ 50% |
